Reference: patent US8637511B2, “Aminopyrimidines useful as kinase inhibitors” (Vertex Pharmaceuticals Incorporated, priority 2005, dated 2014)
Read-outs that look alike come from different tables or passages of the source.

Experiments:
[1] = tested on: Colo205 cells; test: Analysis of cell proliferation and viability; format: cell-based; conditions: Homo sapiens, COLO 205, Colo205 cells, read-out: IC50 value
[2] = molecular target: T1, human Itk kinase (Homo sapiens, UniProt Q08881); test: Itk inhibition assay: radioactivity-based assay; format: biochemical; conditions: Ki(app)
T1 sequence (Q08881 1-620): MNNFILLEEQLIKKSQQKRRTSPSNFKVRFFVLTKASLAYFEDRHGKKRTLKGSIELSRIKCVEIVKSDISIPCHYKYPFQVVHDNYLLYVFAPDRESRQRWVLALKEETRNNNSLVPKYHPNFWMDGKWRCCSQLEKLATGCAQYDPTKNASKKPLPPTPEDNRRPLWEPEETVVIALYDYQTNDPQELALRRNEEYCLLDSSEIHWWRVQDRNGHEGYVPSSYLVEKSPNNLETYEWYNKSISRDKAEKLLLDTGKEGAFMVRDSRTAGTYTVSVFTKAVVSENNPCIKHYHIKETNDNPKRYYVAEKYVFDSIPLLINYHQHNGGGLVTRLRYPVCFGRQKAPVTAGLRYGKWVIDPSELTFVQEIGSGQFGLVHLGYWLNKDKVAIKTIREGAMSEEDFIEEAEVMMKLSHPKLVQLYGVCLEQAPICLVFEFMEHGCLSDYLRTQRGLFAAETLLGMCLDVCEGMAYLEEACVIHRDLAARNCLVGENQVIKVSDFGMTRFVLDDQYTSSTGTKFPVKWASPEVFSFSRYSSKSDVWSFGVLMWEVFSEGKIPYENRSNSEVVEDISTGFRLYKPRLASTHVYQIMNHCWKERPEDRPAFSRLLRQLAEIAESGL
Protocol: The compounds of the present invention were evaluated as inhibitors of human Itk kinase using a radioactivity-based assay. These compounds can also be evaluated using a spectrophotometric or alphascreen assay.
Assays were carried out in a mixture of 20 mM MOPS (pH 7.0), 10 mM MgCl2, 0.1% BSA and 1 mM DTT. Final substrate concentrations in the assay were 7.5 μM [γ-^33P]ATP (400 μCi ^33P ATP/μmol ATP, Amersham Pharmacia Biotech/Sigma Chemicals) and 3 μM peptide (SAM68 protein Δ332-443). Assays were carried out at 25° C. in the presence of 50 nM Itk. An assay stock buffer solution was prepared containing all of the reagents listed above, with the exception of ATP and the test compound of interest. 50 μL of the stock solution was placed in a 96 well plate followed by addition of 2 μL of DMSO stock containing serial dilutions of the test compound (typically starting from a final concentration of 50 μM with 2-fold serial dilutions) in duplicate (final DMSO concentration 2%). The plate was pre-incubated for 10 minutes at 25° C. and the reaction initiated by addition of 50 μL [γ-^33P]ATP (final concentration 7.5 μM).
The reaction was stopped after 10 minutes by the addition of 100 μL 0.2M phosphoric acid+0.01% TWEEN 20. A multiscreen phosphocellulose filter 96-well plate (Millipore, Cat no. MAPHNOB50) was pretreated with 100 μL 0.2M phosphoric acid+0.01% TWEEN 20 prior to the addition of 170 μL of the stopped assay mixture. The plate was washed with 4×200 μL 0.2M phosphoric acid+0.01% TWEEN 20. After drying, 30 μL Optiphase ‘SuperMix’ liquid scintillation cocktail (Perkin Elmer) was added to the well prior to scintillation counting (1450 Microbeta Liquid Scintillation Counter, Wallac).
Ki(app) data were calculated from non-linear regression analysis of the initial rate data using the Prism software package (GraphPad Prism version 3.0cx for Macintosh, GraphPad Software, San Diego Calif., USA).

[3] = molecular target: T2, JAK3 (Homo sapiens, UniProt P52333); test: biochemical
T2 sequence (P52333 1-1124): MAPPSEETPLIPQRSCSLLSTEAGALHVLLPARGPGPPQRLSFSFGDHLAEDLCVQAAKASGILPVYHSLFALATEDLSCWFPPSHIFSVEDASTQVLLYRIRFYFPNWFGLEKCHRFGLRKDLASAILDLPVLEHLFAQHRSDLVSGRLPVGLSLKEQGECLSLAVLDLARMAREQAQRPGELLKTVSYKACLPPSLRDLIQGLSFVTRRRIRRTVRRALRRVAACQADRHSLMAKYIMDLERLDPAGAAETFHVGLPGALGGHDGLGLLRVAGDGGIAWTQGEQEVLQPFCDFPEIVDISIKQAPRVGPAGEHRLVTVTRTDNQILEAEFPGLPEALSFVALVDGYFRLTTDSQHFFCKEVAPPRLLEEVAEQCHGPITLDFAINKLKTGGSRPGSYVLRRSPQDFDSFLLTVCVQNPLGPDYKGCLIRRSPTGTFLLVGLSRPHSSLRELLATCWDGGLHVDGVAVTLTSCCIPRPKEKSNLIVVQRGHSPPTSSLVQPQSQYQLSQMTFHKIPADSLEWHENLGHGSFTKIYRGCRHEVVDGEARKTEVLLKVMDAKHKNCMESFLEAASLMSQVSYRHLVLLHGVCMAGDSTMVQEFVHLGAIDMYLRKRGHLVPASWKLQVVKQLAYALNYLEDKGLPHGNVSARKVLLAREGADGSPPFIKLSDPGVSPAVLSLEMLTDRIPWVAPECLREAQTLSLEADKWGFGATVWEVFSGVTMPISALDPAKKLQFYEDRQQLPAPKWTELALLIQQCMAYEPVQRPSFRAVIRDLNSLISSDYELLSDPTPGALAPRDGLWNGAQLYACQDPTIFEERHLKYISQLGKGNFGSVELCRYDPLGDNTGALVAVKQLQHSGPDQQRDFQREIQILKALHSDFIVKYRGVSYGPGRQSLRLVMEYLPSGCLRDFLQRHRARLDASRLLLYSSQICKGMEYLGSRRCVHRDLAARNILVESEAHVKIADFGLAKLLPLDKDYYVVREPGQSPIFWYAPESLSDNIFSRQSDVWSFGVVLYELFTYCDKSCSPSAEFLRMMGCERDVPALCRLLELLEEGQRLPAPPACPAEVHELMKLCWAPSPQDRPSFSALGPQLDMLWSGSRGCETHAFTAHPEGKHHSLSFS
Protocol: Reactions were carried out in a kinase buffer containing 100 mM HEPES (pH 7.4), 1 mM DTT, 10 mM MgCl2, 25 mM NaCl, and 0.01% BSA. Substrate concentrations in the assay were 5 μM ATP (200 uCi/μmole ATP) and 1 μM poly(Glu)4Tyr. Reactions were carried out at 25° C. and 1 nM JAK3.
To each well of a 96 well polycarbonate plate was added 1.5 μl of a candidate JAK3 inhibitor along with 50 μl of kinase buffer containing 2 μM poly(Glu)4Tyr and 10 μM ATP. This was then mixed and 50 μl of kinase buffer containing 2 nM JAK3 enzyme was added to start the reaction. After 20 minutes at room temperature (25 C), the reaction was stopped with 50 μl of 20% trichloroacetic acid (TCA) that also contained 0.4 mM ATP. The entire contents of each well were then transferred to a 96 well glass fiber filter plate using a TomTek Cell Harvester. After washing, 60 μl of scintillation fluid was added and ^33P incorporation detected on a Perkin Elmer TopCount.

[4] = molecular target: T3, FLT-3 (Homo sapiens, UniProt P36888); test: FLT-3 inhibition assay, radiometric filter-binding; format: biochemical
T3 sequence (P36888 27-993): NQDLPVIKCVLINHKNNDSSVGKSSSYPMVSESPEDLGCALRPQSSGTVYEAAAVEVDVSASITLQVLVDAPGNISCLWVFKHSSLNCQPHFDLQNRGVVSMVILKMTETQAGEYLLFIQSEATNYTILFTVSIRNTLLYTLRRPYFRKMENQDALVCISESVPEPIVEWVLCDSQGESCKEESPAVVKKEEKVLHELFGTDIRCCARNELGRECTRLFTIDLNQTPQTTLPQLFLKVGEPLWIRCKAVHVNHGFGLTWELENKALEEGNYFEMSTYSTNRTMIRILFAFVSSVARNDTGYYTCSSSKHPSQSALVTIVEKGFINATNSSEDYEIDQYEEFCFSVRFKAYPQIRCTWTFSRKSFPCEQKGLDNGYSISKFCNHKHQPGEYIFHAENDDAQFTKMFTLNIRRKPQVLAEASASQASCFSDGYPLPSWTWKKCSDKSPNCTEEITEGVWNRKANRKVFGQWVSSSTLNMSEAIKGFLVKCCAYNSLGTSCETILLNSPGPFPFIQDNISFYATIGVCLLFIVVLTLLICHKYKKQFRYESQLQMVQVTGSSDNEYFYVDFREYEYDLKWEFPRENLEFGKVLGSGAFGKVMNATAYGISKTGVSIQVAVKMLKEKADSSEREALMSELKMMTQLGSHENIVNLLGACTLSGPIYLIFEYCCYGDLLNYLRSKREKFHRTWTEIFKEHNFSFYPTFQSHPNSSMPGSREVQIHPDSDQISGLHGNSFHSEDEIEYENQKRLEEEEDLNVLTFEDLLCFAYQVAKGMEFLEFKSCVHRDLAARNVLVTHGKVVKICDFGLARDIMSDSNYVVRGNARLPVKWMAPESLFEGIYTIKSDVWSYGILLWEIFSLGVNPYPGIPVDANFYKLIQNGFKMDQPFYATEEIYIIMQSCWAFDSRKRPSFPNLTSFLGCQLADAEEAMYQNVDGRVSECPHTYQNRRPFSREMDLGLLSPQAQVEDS
Protocol: This assay monitors the 33P incorporation into a substrate poly(Glu, Tyr) 4:1 (pE4Y). […] Final substrate concentrations in the assay were 90 μM ATP and 0.5 mg/ml pE4Y (both from Sigma Chemicals, St. Louis, Mo.). […] Reactions were carried out at room temperature.
Two assay solutions were prepared. Solution 1 contains 100 mM HEPES (pH 7.5), 10 mM MgCl2, 25 mM NaCl, 1 mg/ml pE4Y and […] (containing 0.3 mCi of [γ-33^P]ATP for each reaction). Solution 2 contains 100 mM HEPES (pH 7.5), 10 mM MgCl2, 25 mM NaCl, 2 mM DTT, 0.02% BSA and 3 nM FLT-3. The assay was run on a 96 well plate by mixing 50 μl each of Solution 1 and […] of the compounds of the present invention. The reaction was initiated with Solution 2. […] All of the reaction volume was then transferred to a filter plate and washed with 5% TCA by a Harvester 9600 from TOMTEC (Hamden, Conn.). The amount of ^33P incorporation into pE4y was analyzed by a Packard Top Count Microplate Scintillation Counter (Meriden, Conn.). The data was fitted using Prism software to get an IC50 or Ki.

[5] = molecular target: Aurora-1 (Aurora B) (Homo sapiens, UniProt Q96GD4); test: Aurora-1 (Aurora B) inhibition assay (radiometric); format: biochemical; conditions: read-out: Aurora B kinase Ki value
Aurora-1 (Aurora B), sequence (Q96GD4 whole entry): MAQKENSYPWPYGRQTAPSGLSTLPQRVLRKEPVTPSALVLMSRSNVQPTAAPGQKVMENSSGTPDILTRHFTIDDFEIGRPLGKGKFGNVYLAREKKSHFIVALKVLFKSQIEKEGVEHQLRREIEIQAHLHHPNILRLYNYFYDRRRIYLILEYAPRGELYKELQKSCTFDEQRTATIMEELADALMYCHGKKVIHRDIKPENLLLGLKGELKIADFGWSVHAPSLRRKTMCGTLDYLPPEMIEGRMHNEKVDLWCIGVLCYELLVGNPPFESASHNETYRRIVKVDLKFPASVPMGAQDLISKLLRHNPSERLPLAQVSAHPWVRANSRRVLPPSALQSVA
Procedure, shortened: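 Radiometric ^33P incorporation into peptide substrate, with [γ-^33P]-ATP at 800 μM final, in 25 mM HEPES pH 7.5, 10 mM MgCl2, 0.1% BSA, 10% glycerol. Compound preincubated with enzyme for 10 min at 25° C, reaction run 3 h, then captured on phosphocellulose. Ki from initial rates by non-linear regression after background subtraction.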

[6] = molecular target: T4, Aurora-2 (Aurora A) (Homo sapiens, UniProt O14965); test: Aurora-2 (Aurora A) inhibition assay, coupled enzyme; format: biochemical; conditions: read-out: Aurora A kinase Ki value
T4 sequence (O14965 1-403): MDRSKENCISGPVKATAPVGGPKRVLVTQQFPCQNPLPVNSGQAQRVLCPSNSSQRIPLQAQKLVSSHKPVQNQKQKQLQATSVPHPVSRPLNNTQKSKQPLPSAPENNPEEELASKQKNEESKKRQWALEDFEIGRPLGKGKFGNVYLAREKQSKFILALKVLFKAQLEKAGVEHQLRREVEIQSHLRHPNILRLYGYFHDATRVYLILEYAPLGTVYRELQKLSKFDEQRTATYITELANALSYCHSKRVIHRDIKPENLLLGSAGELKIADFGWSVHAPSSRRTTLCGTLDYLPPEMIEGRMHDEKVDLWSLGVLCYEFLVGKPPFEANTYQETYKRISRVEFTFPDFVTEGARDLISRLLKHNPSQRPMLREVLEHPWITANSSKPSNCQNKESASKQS
Procedure, shortened: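 Coupled pyruvate kinase/lactate dehydrogenase assay with NADH in pH 7.5 Hepes containing MgCl2, DTT and NaCl, using 40 nM Aurora-2 at 30 °C. After a 10 min preincubation, enzyme addition started the reaction, and initial rates were taken over 10 min. IC50 and Ki came from non-linear regression.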

Cc1cc(Nc2cc(N3CCC3)nc(Sc3ccc(NC(=O)c4c(F)cccc4F)cc3)n2)n[nH]1 [Compound 7]
IC50 ([1]; incubated for 96 hours): ≤ 50 nM | Ki [2]: ≤ 100 nM

Cc1cc(Nc2cc(N3CCC3)nc(Sc3ccc(NC(=O)c4cccc(Cl)c4)cc3)n2)n[nH]1 [Compound 53]
IC50 ([1]; incubated for 96 hours): 50 to 1000 nM | Ki [2]: 100 to 1000 nM

Cc1cc(Nc2cc(N3CCC3)nc(Sc3ccc(N(C)C(=O)c4c(F)cccc4F)cc3)n2)n[nH]1 [Compound 11]
Ki [3]: 10 to 500 nM | Ki [4]: 150 to 1000 nM | IC50 ([1]; incubated for 96 hours): 50 to 1000 nM | Ki [5]: 50 to 2000 nM

Cc1cc(Nc2cc(N3CCC3)nc(Sc3ccc(NC(=O)c4ccccc4C(F)(F)F)cc3)n2)[nH]n1 [Compound 56]
IC50 ([1]; incubated for 72 hours): 30 to 200 nM | IC50 ([1]; incubated for 96 hours): ≤ 50 nM | Ki [2]: 100 to 1000 nM

Cc1cc(Nc2cc(CN3CCC3)nc(Sc3ccc(NC(=O)c4ccccc4C(F)(F)F)cc3)n2)[nH]n1 [Compound 132]
Ki [3]: 500 to 2000 nM | Ki [4]: 150 to 1000 nM | IC50 ([1]; incubated for 72 hours): > 200 nM | IC50 ([1]; incubated for 96 hours): 50 to 1000 nM | Ki [5]: 10 to 50 nM

Cc1cc(Nc2cc(N3CCC3)nc(Sc3ccc(NC(=O)c4cc(Cl)ccc4Cl)cc3)n2)n[nH]1 [Compound 163]
IC50 ([1]; incubated for 96 hours): 50 to 1000 nM | Ki [2]: 100 to 1000 nM

Cc1cc(Nc2cc(N3CCC3)nc(Sc3ccc(NC(=O)c4ccc(CN5CCC5)cc4)cc3)n2)[nH]n1 [Compound 139]
Ki [6]: 5 to 200 nM | Ki ([4]; read-out: FLT-3 Ki value): 150 to 1000 nM | IC50 ([1]; incubated for 96 hours): 50 to 1000 nM | Ki [5]: 50 to 2000 nM

Cc1cc(Nc2cc(N3CC(N4CCOCC4)C3)nc(Sc3ccc4nc(C(F)(F)F)n(C)c4c3)n2)[nH]n1 [Compound 195]
Ki [3]: 10 to 500 nM | Ki [4]: 150 to 1000 nM | IC50 ([1]; incubated for 72 hours): 30 to 200 nM | Ki [5]: ≤ 10 nM

Cc1cc(Nc2cc(N3CC(F)(C4CC4)C3)nc(Sc3ccc4ccn(CC(F)(F)F)c(=O)c4c3)n2)[nH]n1 [Compound 189]
Ki ([3]; read-out: JAK3 Ki value): 10 to 500 nM | Ki [4]: 50 to 150 nM | IC50 ([1]; incubated for 72 hours): > 200 nM | Ki [5]: 50 to 2000 nM
